Biological target: T1, integrin-linked kinase (ILK) (Homo sapiens, UniProt Q13418)
T1 sequence (Q13418 1-452): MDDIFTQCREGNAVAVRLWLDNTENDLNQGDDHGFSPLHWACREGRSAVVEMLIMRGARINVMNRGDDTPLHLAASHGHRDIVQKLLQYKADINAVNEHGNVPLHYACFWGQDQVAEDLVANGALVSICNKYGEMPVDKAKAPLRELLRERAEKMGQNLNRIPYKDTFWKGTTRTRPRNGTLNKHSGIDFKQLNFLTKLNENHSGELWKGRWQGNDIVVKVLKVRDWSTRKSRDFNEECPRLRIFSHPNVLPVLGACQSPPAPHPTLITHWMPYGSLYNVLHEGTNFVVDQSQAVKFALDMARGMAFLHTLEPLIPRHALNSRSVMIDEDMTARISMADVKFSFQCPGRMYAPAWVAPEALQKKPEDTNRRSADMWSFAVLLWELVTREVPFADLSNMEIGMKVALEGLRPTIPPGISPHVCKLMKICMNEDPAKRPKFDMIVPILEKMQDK
Assay: SPR (Biacore S200), ILK immobilized on CM5 chip
Type: binding

| Kd [nM] | SMILES |
| --- | --- |
| 2640 | COc1ccc(N=Nc2c(N)n[nH]c2N)cc1 [ILK-IN-3, reference compound] |
| 6410 | Cc1cn(-c2cc(NC(=O)c3ccc(C)c(Nc4nccc(-c5cccnc5)n4)c3)cc(C(F)(F)F)c2)cn1 [d1, Nilotinib] |

| SMILES | Kd [nM] |
| --- | --- |
| COc1cc([C@@H]2c3cc4c(cc3[C@@H](O[C@@H]3O[C@@H]5CO[C@@H](c6cccs6)O[C@H]5[C@H](O)[C@H]3O)[C@H]3COC(=O)[C@H]23)OCO4)cc(OC)c1O [d2, Teniposide] | 1790 |
